Data reported in patent EP4733299A1, “SULFUR-CONTAINING FUSED RING COMPOUND, PHARMACEUTICAL COMPOSITION CONTAINING SAME, AND PREPARATION METHOD THEREFOR AND USE THEREOF” (Shenzhen Braegen Pharmaceutical Co., Ltd., priority 2023, dated 2024).

Target: T1, a-Syn aggregates (Homo sapiens, UniProt P37840, A53T)
T1 construct: tissue The Jackson Laboratory 017682; host or cells: brain sections of rotenone-treated transgenic mice
Assay: Binding specificity on brain slices of rotenone-treated SNCA transgenic mice
Conditions: for capture of a-Syn aggregates: brain slices, rotenone-treated SNCA Tg mice, Fig. 2
Procedure: To further explore whether the positive compounds selectively bind to Lewy bodies, brain slices from mice were used to test the binding specificity assays.
Staining with a-Synuclein protein coding gene (SNCA) transgenic mice (the Jackson Laboratory; stock numbers: 017682) were treated with rotenone (Oral gavage of rotenone under the following protocol: Mice were treated with 0.1 mL/25 g of vehicle containing 1% methylcellulose (Sigma, Catalog No.: M0512) and 1.25% chloroform (Sigma, Catalog No.: 2432) or a solution containing 0.625 mg/mL of rotenone (ULTRA Scientific, Catalog No.: PST-890) with 1% methylcellulose and 1.25% chloroform. We prepared rotenone solution by dissolving rotenone in chloroform and then diluting into 1% methylcellulose solution while mixing vigorously. Rotenone or vehicle control was orally administered with a 1.2 x 60 mm gavage (Unimed, Switzerland) once a day for 5 days/week, consecutively for 3 months.), which contains abundant LB-like inclusions. Furthermore, brain slices from NFT abundant Tau P301S mice and Aβ-enriched 5 x FAD mice were also used separately.
The brain slices were fixed and incubated for 12 h at 4 °C with primary antibodies followed by incubation with Alexa Fluor 568-, Alexa Fluor 488-, or Alexa Fluor 647-conjugated secondary antibodies (Invitrogen) for 3 h at room temperature. Then stained with ThS (Sigma, Catalog No.: T1892) or candidate compounds at room temperature, 4',6-diamidino-2-phenylindole (DAPI, 1 µg/ml) (Sigma-Aldrich) was used for the nuclear staining. The slides were imaged with Olympus FluoView FV1000 confocal laser scanning microscope using Olympus FluoView software to acquire data.

Compound: COc1cc(/C=C/c2nc3cc(C)c(N(C)CCOCCF)cc3s2)ccc1O [Compound A, (E)-4-(2-(6-((2-(2-fluoroethoxy)ethyl)(methyl)amino)-5-methylbenzo[d]thiazol-2-yl)vinyl)-2-methoxyphenol]
- capture of a-Syn aggregates: sensitively captured a-Syn aggregates

Compound: COc1cc(/C=C/c2nc3cc(C)c(N(C)CCOCCF)cc3s2)cc(Br)c1O [Compound S, (E)-2-bromo-4-(2-(6-((2-(2-fluoroethoxy)ethyl)(methyl)amino)-5-methylbenzo[d]thiazol-2-yl)vinyl)-6-methoxyphenol]
- capture of a-Syn aggregates: sensitively captured a-Syn aggregates

Compound: thioflavin-S [ThS, reference compound]
- co-localization with aggregates in the brain sections (positive control, mouse brain sections): co-localized with all of these aggregates
